Experimental data published in patent publication US20200316064A1, “CYCLIN-DEPENDENT KINASE 2 BIOMARKERS AND USES THEREOF” (Incyte Corporation, priority 2019, published 2020).

Tests used:
[1] = system: CCNE1-amplified cell lines (COV318, OVCAR3, Fu-OV1, KLE, MKN1, AGS, NCI-N87); assay: Cell cycle analysis by FACS in CCNE1-amplified cell lines; type: cell-based, human; details: 100 nM, 16 hours, vs DMSO
Procedure: The effect of CDK2-knockdown in CCNE1-amplified versus CCNE1-non-amplified cell lines was evaluated. CCNE1-amplified cell lines (Fu-OV1 and KLE) or CCNE1-non-amplified cell lines (COV504 and Igrov1) were treated with a control (“ctrl”) or CDK2-specific small interfering RNAs (“siRNAs”) (“CDK2 siRNA-1” and “CDK2 siRNA-2”) (FIGS. 2A and 2B and 3A and 3B). Seventy-two hours after transfection with the siRNAs, the cells were harvested and subjected to cell cycle analysis by fluorescence activated cell sorting (“FACS”) (FIGS. 2A and 3A). Knockdown of CDK2 was confirmed by western blot (FIGS. 2B and 3B).
The effect of CDK4/6-inhibition in CCNE1-amplified versus CCNE1-non-amplified cell lines was evaluated.
A similar experiment was performed in a larger set of CCNE1-amplified cell lines (COV318 and OVCAR3) and CCNE1-non-amplified cell lines (COV504, OV56, and Igrov1) (FIG. 6).
Next, the impact of CDK2-knockdown in these cells was evaluated. Mkn1, Ags, and NCI-N87 cells were treated with control or CDK2-specific siRNA. Three days-post-siRNA transfection, cell cycle phase distribution of the cells was evaluated by FACS. […]
Bulk DNA was stained with DAPI. Compound-treated and DMSO treated control cells were acquired with CytoFlex (Beckman Coulter) and were analyzed using the Flow Jo software. […]

[2] = system: Rb phosphorylated on serine 780 in CCNE1 amplified COV318 cells; assay: CDK2 pRb (S780) HTRF cellular assay; type: cell-based, human; details: for IC50: Homo sapiens, FIG. 10B, read-out: IC50 in p-RB S780 HTRF cellular assay
Procedure: CDK2 pRb ([…]) HTRF cellular assay enables the quantitative detection of Rb phosphorylated on […] in CCNE1 amplified COV318 cells. The assay comprised two antibodies: Europium cryptate labeled anti-Phospho-Rb […] antibody (donor) and d2 labeled anti-Rb antibody (acceptor). In brief, COV318 cells were seeded into the wells of 96-well plate at a density of 25,000 per well with 9-point, 3-fold serial diluted compounds and cultured overnight at 37 degree with 5% CO2. The final concentrations of compounds start from 3 μM. The next day cells were lysed in 70 μL 1× Phospho-total protein lysis buffer #2 (Cisbio), supplemented with 0.7 μL blocking buffer (Cisbio) and 1.4 μL protease inhibitor cocktail set III, EDTA-free (Calbiochem, 539134). 16 μL of cell lysates were mixed with 4 μL of the fluorophore-conjugated antibodies to a final concentration of 0.188 nM cryptate-labeled anti-Phospho-Rb […] antibody and 0.14 nM d2 labeled anti-Rb antibody. After 2 h of incubation at room temperature, HTRF signals were measured on the PHERAstar microplate reader (BMG Labtech), using 340 nm as excitation wavelength, a 620 nm filter for the Europium donor fluorescence, and a 665-nm filter for the acceptor fluorescence detection. HTRF signals were calculated as the HTRF ratio (ratio of fluorescence measured at 665 nm and 620 nm)×10000.

| IC50 [2] | Compound | percentage of S phase cells ([1]; COV318, control siRNA-treated) | percentage of S phase cells ([1]; COV318, p16 knocked down by siRNA) | Rb phosphorylation on serine 780 [2] |
| --- | --- | --- | --- | --- |
| 37 nM | C[C@@]1(O)CCC[C@H]1n1c(=O)ccc2cnc(NC3CCN(S(C)(=O)=O)CC3)nc21 [Compound A, 8-((1R,2R)-2-hydroxy-2-methylcyclopentyl)-2-((1-(methylsulfonyl)piperidin-4-yl)amino)pyrido[2,3-d]pyrimidin-7(8H)-one] | significantly decreased | not significantly decreased | inhibited Rb phosphorylation on serine 780 |
| > 3000 nM | CC(=O)c1c(C)c2cnc(Nc3ccc(N4CCNCC4)cn3)nc2n(C2CCCC2)c1=O [palbociclib] | – | – | – |
